Measurements as given in the supplement of paper PMC5908809.

Tests used:
[1] = test system: normal NK cells expanded with K562-aAPC; test: percent inhibition of viability; higher = more inhibition; details: 72 h, IL-2 2.5 ng/mL
Method: (§1)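 Drug sensitivity and resistance testing on K562-aAPC-expanded normal NK cells: 5 concentrations (10-fold steps over a 10,000-fold range), 72 h at 37 °C, viability by CellTiter-Glo normalised to DMSO and benzethonium chloride controls; DSS from the fitted curve.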

DERL-7 (IL-2 2.5 ng/mL) [2] = test: as above; details: 72 h
IMC-1 (IL-2 20 ng/mL) [3] = test: as above; details: 72 h
KAI3 (IL-2 2.5 ng/mL) [4] = test: as above; details: 72 h
KHYG-1 (IL-2 2.5 ng/mL) [5] = test: as above; details: 72 h
NK-92 (IL-2 2.5 ng/mL) [6] = test: as above; details: 72 h
NK-YS (IL-2 2.5 ng/mL) [7] = test: as above; details: 72 h
NKL (IL-2 2.5 ng/mL) [8] = test: as above; details: 72 h
SNK-6 (IL-2 2.5 ng/mL) [9] = test: as above; details: 72 h
YT (IL-2 2.5 ng/mL) [10] = test: as above; details: 72 h
[11] = test system: normal primary NK cells, pool 1 (3 donors) (IL-2 2.5 ng/mL); test: as above; details: 72 h
[12] = test system: normal primary NK cells, pool 1 (3 donors), resting (IL-2 0 ng/mL); test: as above; details: 72 h
[13] = test system: normal primary NK cells, pool 2 (3 donors) (IL-2 2.5 ng/mL); test: as above; details: 72 h
[14] = test system: normal primary NK cells, pool 3 (3 donors) (IL-2 2.5 ng/mL); test: as above; details: 72 h
[15] = test system: normal NK cells expanded with K562-aAPC; test: drug sensitivity score (DSS) (DSS units); higher = more sensitive; extreme values may be limits of the assay; details: 72 h; IL-2 2.5 ng/mL
Method: as §1

DERL-7 (IL-2 2.5 ng/mL) [16] = test: as above; details: 72 h
IMC-1 (IL-2 20 ng/mL) [17] = test: as above; details: 72 h
KAI3 (IL-2 2.5 ng/mL) [18] = test: as above; details: 72 h
KHYG-1 (IL-2 2.5 ng/mL) [19] = test: as above; details: 72 h
NK-92 (IL-2 2.5 ng/mL) [20] = test: as above; details: 72 h
NK-YS (IL-2 2.5 ng/mL) [21] = test: as above; details: 72 h
NKL (IL-2 2.5 ng/mL) [22] = test: as above; details: 72 h
SNK-6 (IL-2 2.5 ng/mL) [23] = test: as above; details: 72 h
YT (IL-2 2.5 ng/mL) [24] = test: as above; details: 72 h
[25] = test system: normal primary NK cells, pool 1 (3 donors) (IL-2 2.5 ng/mL); test: as above; details: 72 h
[26] = test system: normal primary NK cells, pool 1 (3 donors), resting (IL-2 0 ng/mL); test: as above; details: 72 h
[27] = test system: normal primary NK cells, pool 2 (3 donors) (IL-2 2.5 ng/mL); test: as above; details: 72 h
[28] = test system: normal primary NK cells, pool 3 (3 donors) (IL-2 2.5 ng/mL); test: as above; details: 72 h

O=C(Nc1ccc(-c2ccnc(Nc3ccc(N4CCOCC4)cc3)n2)cc1)C1CCCN1 (stereo not drawn) [XL019] (max concentration tested 10000 nM)
percent inhibition of viability [%]
Details | 1 nM | 10 nM | 100 nM | 1000 nM | 10000 nM
DERL-7 (IL-2 2.5 ng/mL) [2] | 0.19 | 0.52 | 7.06 | 25.9 | 71.8
IMC-1 (IL-2 20 ng/mL) [3] | -1.28 | -4.89 | 1.81 | -0.33 | 61.4
KAI3 (IL-2 2.5 ng/mL) [4] | -6.77 | -0.02 | 6.51 | 18.2 | 83.2
KHYG-1 (IL-2 2.5 ng/mL) [5] | -4.32 | -2.94 | 2.79 | 6.64 | 81.2
NK-92 (IL-2 2.5 ng/mL) [6] | 1.46 | -2 | -6.58 | -8.42 | 44.8
NK-YS (IL-2 2.5 ng/mL) [7] | -3 | -6.33 | -0.83 | 6.03 | 49.6
NKL (IL-2 2.5 ng/mL) [8] | -2.13 | 4.85 | 23.2 | 31.3 | 72.5
SNK-6 (IL-2 2.5 ng/mL) [9] | -2.35 | -15.3 | 3.5 | -9.49 | 27.1
YT (IL-2 2.5 ng/mL) [10] | 0.46 | -0.22 | 5.02 | 2.15 | 33.3
[1] | -3.5 | -1.96 | 2.68 | 12.6 | 72
[11] | -9.78 | 0.22 | -10.4 | 9.22 | 80
[12] | 1.73 | 2.9 | -4.73 | 19.1 | 61.7
[13] | -2.68 | -3.46 | -5.23 | 19.5 | 74.1
[14] | -1.82 | 6.1 | -1.33 | 13.9 | 81.2

Details | drug sensitivity score
DERL-7 (IL-2 2.5 ng/mL) [16] | 6.99
IMC-1 (IL-2 20 ng/mL) [17] | 3.31
KAI3 (IL-2 2.5 ng/mL) [18] | 7.51
KHYG-1 (IL-2 2.5 ng/mL) [19] | 5.54
NK-92 (IL-2 2.5 ng/mL) [20] | 1.81
NK-YS (IL-2 2.5 ng/mL) [21] | 3.62
NKL (IL-2 2.5 ng/mL) [22] | 9.26
SNK-6 (IL-2 2.5 ng/mL) [23] | 0.74
YT (IL-2 2.5 ng/mL) [24] | 1.85
[15] | 6.07
[25] | 5.96
[26] | 6.18
[27] | 7.07
[28] | 6.8

O=C1CN2Cc3c(ccc(Cl)c3Cl)N=C2N1 [Anagrelide] (max concentration tested 10000 nM)
percent inhibition of viability [%]
Details | 1 nM | 10 nM | 100 nM | 1000 nM | 10000 nM
DERL-7 (IL-2 2.5 ng/mL) [2] | 0.58 | -15.8 | 5.22 | -2.15 | -3.54
IMC-1 (IL-2 20 ng/mL) [3] | -2 | -2.1 | 0.73 | -7.98 | 0.69
KAI3 (IL-2 2.5 ng/mL) [4] | -3.01 | -16.8 | 2.67 | 7.81 | 26.7
KHYG-1 (IL-2 2.5 ng/mL) [5] | -5.21 | -5.67 | -5.27 | 2.55 | 2.12
NK-92 (IL-2 2.5 ng/mL) [6] | -16.3 | -4.98 | 5.49 | 11 | 18.2
NK-YS (IL-2 2.5 ng/mL) [7] | -1.23 | -6.42 | 0.98 | -1.47 | 9.94
NKL (IL-2 2.5 ng/mL) [8] | -8 | -3.63 | 5.32 | 5.47 | 9.73
SNK-6 (IL-2 2.5 ng/mL) [9] | -14.4 | -27.6 | -25 | 10.6 | 16.6
YT (IL-2 2.5 ng/mL) [10] | -4.72 | -11.3 | -2.78 | -6.4 | 13
[1] | -10.7 | -8.47 | -7.13 | 1.09 | 4.94
[11] | -7.17 | 12.1 | 9.62 | 3.68 | 6.66
[12] | -14.4 | 8.37 | 10.8 | 4.74 | 9.32
[13] | -5.09 | 5.68 | 10.3 | 2.48 | 5.2
[14] | -7.45 | -4.06 | -2.15 | -4.72 | -5.66

Details | drug sensitivity score
DERL-7 (IL-2 2.5 ng/mL) [16] | 0
IMC-1 (IL-2 20 ng/mL) [17] | 0
KAI3 (IL-2 2.5 ng/mL) [18] | 2.01
KHYG-1 (IL-2 2.5 ng/mL) [19] | 0
NK-92 (IL-2 2.5 ng/mL) [20] | 1.23
NK-YS (IL-2 2.5 ng/mL) [21] | 0
NKL (IL-2 2.5 ng/mL) [22] | 0
SNK-6 (IL-2 2.5 ng/mL) [23] | 1.18
YT (IL-2 2.5 ng/mL) [24] | 0.03
[15] | 0
[25] | 0
[26] | 0.58
[27] | 0
[28] | 0
